Assay results taken from patent publication US8673894B2 (Hoffmann-La Roche Inc., priority 2010, dated 2014).
Counter-ions that a name gives are not always drawn.

Assays:
[1] = biological target: T1, endogenous cellular BACE2 (Rattus norvegicus, UniProt Q6IE75); experiment: Assay for BACE inhibition by measuring cellular TMEM27 cleavage; assay type: cell-based; settings: INS-TMEM27 (INS1e-derived) cells, shed human TMEM27 in supernatant by ELISA
T1 construct: endogenous cellular BACE2 in the Ins1e rat cell line; endogenous in cells; host or cells: INS-TMEM27 (INS1e-derived rat insulinoma cell line with doxycycline-inducible full-length human TMEM27)
T1 sequence (Q6IE75 63-514): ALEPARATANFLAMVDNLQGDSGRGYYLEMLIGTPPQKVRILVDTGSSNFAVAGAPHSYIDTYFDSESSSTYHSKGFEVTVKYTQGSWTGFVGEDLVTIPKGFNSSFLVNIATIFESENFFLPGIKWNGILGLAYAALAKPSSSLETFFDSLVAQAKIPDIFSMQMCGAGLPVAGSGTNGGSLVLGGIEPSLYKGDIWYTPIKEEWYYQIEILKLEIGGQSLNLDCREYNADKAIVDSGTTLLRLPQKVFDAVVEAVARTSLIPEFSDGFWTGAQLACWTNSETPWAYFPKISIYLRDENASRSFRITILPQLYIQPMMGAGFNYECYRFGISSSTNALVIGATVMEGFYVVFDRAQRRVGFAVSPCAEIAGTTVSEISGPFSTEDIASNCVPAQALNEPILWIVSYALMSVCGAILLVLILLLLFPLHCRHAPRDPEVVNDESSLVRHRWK
Procedure, shortened: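 INS1e rat cells with doxycycline-inducible human TMEM27 get inhibitor 2 h before doxycycline (500 ng/ml final), then 46 h further at 37° C. Shed TMEM27 in the supernatant is measured by sandwich ELISA, and the EC50 comes from a curve fit of the ELISA signal.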

Aβ40 = experiment: Cellular Aβ-lowering assay; assay type: cell-based; settings: HEK293 cells stably expressing human APP695, Aβ40 in supernatant by ELISA after 18-20 hrs; read-out: Cellular assay Abeta40 IC50
Procedure, shortened: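 HEK293 cells stably expressing human wild-type APP695 were treated with compound for 18-20 h at 37 °C in 0.8% v/v DMSO. Secreted Aβ40 in the supernatant was measured by sandwich ELISA (Aβ40 C-terminus-specific capture, HRP-4G8 detection, TMB read at 450 nm) and quantified against a pure Aβ peptide standard curve.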

Row | SMILES | IC50 [1] [µM] | IC50 (Aβ40) [µM]
1 | C[C@]1(c2cc(NC(=O)c3ncccc3OCC(F)(F)F)ccc2F)N=C(N)COCC1(F)F [Example 59, (R)-N-(3-(3-amino-6,6-difluoro-5-methyl-2,5,6,7-tetrahydro-1,4-oxazepin-5-yl)-4-fluorophenyl)-3-(2,2,2-trifluoroethoxy)picolinamide] | 0.17 | 0.16
2 | CC[C@@]1(c2cc(NC(=O)c3ncc(Cl)cc3Cl)ccc2F)CCOCC(N)=N1 [Example 15, 3,5-Dichloro-pyridine-2-carboxylic acid [3-((S)-3-amino-5-ethyl-2,5,6,7-tetrahydro-[1,4]oxazepin-5-yl)-4-fluoro-phenyl]-amide] | 0.038 | 0.88
3 | Cn1cc(Cl)c(C(=O)Nc2ccc(F)c([C@@]3(C)N=C(N)COCC3(F)F)c2)n1 [Example 41, (R)-N-(3-(3-amino-6,6-difluoro-5-methyl-2,5,6,7-tetrahydro-1,4-oxazepin-5-yl)-4-fluorophenyl)-4-chloro-1-methyl-1H-pyrazole-3-carboxamide formate] | 0.003 | 0.0072
4 | C[C@]1(c2cc(NC(=O)c3ccc(F)cn3)ccc2F)N=C(N)COCC1(F)F [Example 29, (R)-N-(3-(3-amino-6,6-difluoro-5-methyl-2,5,6,7-tetrahydro-1,4-oxazepin-5-yl)-4-fluorophenyl)-5-fluoropicolinamide formate] | 0.0033 | 0.0053
5 | CC1(C)OCC(N)=N[C@](C)(c2cc(NC(=O)c3ccc(C#N)cn3)ccc2F)C1(F)F [Example 111, (R)-N-(3-(3-amino-6,6-difluoro-5,7,7-trimethyl-2,5,6,7-tetrahydro-1,4-oxazepin-5-yl)-4-fluorophenyl)-5-cyanopicolinamide] | 0.0305 | 0.0007
6 | C[C@]1(c2cc(NC(=O)c3ccc(Cl)cn3)ccc2F)N=C(N)COC[C@@H]1F [Example 61, N-(3-((5R,6R)-3-amino-6-fluoro-5-methyl-2,5,6,7-tetrahydro-1,4-oxazepin-5-yl)-4-fluorophenyl)-5-chloropicolinamide] | 0.001 | 0.0002
7 | C[C@]1(c2cc(NC(=O)c3ncc(C(F)(F)F)cc3F)ccc2F)N=C(N)COCC1(F)F [Example 88, (R)-N-(3-(3-Amino-6,6-difluoro-5-methyl-2,5,6,7-tetrahydro-1,4-oxazepin-5-yl)-4-fluorophenyl)-3-fluoro-5-(trifluoromethyl)picolinamide formate] | 0.354 | 0.005
8 | NC1=N[C@@]2(c3cccc(NC(=O)c4ncc(C(F)(F)F)cc4Cl)c3)C[C@H]2COC1 (stereo in doubt) [Example 51, 3-Chloro-5-trifluoromethyl-pyridine-2-carboxylic acid [3-((R)-3-amino-5-oxa-2-aza-bicyclo[5.1.0]oct-2-en-1-yl)-phenyl]-amide; salt with trifluoroacetic acid] | 8.59 | 0.1
9 | C[C@]1(c2cc(NC(=O)c3ccc(C#N)cn3)ccc2F)N=C(N)COC[C@@H]1F [Example 63, N-(3-((5R,6R)-3-amino-6-fluoro-5-methyl-2,5,6,7-tetrahydro-1,4-oxazepin-5-yl)-4-fluorophenyl)-5-cyanopicolinamide] | 0.091 | 0.0003
10 | CC1(C)OCC(N)=N[C@](C)(c2cc(NC(=O)c3ccc(C#N)cn3)c(F)cc2F)C1(F)F [Example 117, (R)-N-(5-(3-amino-6,6-difluoro-5,7,7-trimethyl-2,5,6,7-tetrahydro-1,4-oxazepin-5-yl)-2,4-difluorophenyl)-5-cyanopicolinamide] | 30 | 0.034
11 | CC[C@]1(c2cc(NC(=O)c3ccc(Cl)cn3)ccc2F)N=C(N)COCC1(F)F [Example 82, (R)-N-(3-(3-Amino-5-ethyl-6,6-difluoro-2,5,6,7-tetrahydro-1,4-oxazepin-5-yl)-4-fluorophenyl)-5-chloropicolinamide] | 0.0362 | 0.04
12 | CC[C@]1(c2cc(NC(=O)c3n[nH]cc3C)ccc2F)N=C(N)COCC1(F)F [Example 92, (R)-N-(3-(3-Amino-5-ethyl-6,6-difluoro-2,5,6,7-tetrahydro-1,4-oxazepin-5-yl)-4-fluorophenyl)-4-methyl-1H-pyrazole-3-carboxamide] | 0.731 | 2.8
13 | CCc1n[nH]c(C(=O)Nc2ccc(F)c([C@@]3(C)N=C(N)COCC3(F)F)c2)c1C [Example 107, (R)-N-(3-(3-Amino-6,6-difluoro-5-methyl-2,5,6,7-tetrahydro-1,4-oxazepin-5-yl)-4-fluorophenyl)-3-ethyl-4-methyl-1H-pyrazole-5-carboxamide] | 0.886 | 0.79
14 | C[C@@]1(c2cc(NC(=O)c3ncc(C(F)(F)F)cc3Cl)ccc2F)CCOCC(N)=N1 [Example 16, 3-Chloro-5-trifluoromethyl-pyridine-2-carboxylic acid [3-((S)-3-amino-5-methyl-2,5,6,7-tetrahydro-[1,4]oxazepin-5-yl)-4-fluoro-phenyl]-amide] | 0.0135 | 0.014
15 | CCOCc1ccc(C(=O)Nc2ccc(F)c([C@@]3(C)N=C(N)COCC3(F)F)c2)nc1 [Example 57, (R)-N-(3-(3-amino-6,6-difluoro-5-methyl-2,5,6,7-tetrahydro-1,4-oxazepin-5-yl)-4-fluorophenyl)-5-(ethoxymethyl)picolinamide formate] | 0.28 | 0.014
16 | C[C@]1(c2cc(NC(=O)c3nn(C(F)F)cc3Cl)ccc2F)N=C(N)COCC1(F)F [Example 114, (R)-N-(3-(3-Amino-6,6-difluoro-5-methyl-2,5,6,7-tetrahydro-1,4-oxazepin-5-yl)-4-fluorophenyl)-4-chloro-1-(difluoromethyl)-1H-pyrazole-3-carboxamide] | 0.00968 | 0.0049
17 | NC1=N[C@@]2(c3cccc(NC(=O)c4ccc(OCC(F)(F)F)cn4)c3)C[C@H]2COC1 (racemic) [Example 4, 5-(2,2,2-Trifluoro-ethoxy)-pyridine-2-carboxylic acid [3-((1SR,7RS)-3-amino-5-oxa-2-aza-bicyclo[5.1.0]oct-2-en-1-yl)-phenyl]-amide] | 8.9 | 0.63
18 | C[C@]1(c2cc(NC(=O)c3nn(CC(F)(F)F)cc3Cl)ccc2F)N=C(N)COCC1(F)F [Example 106, (R)-N-(3-(3-Amino-6,6-difluoro-5-methyl-2,5,6,7-tetrahydro-1,4-oxazepin-5-yl)-4-fluorophenyl)-4-chloro-1-(2,2,2-trifluoroethyl)-1H-pyrazole-3-carboxamide] | 2.17 | 0.63
19 | CC[C@]1(c2cc(NC(=O)c3nn(C)cc3Cl)ccc2F)N=C(N)COCC1(F)F [Example 85, (R)-N-(3-(3-Amino-5-ethyl-6,6-difluoro-2,5,6,7-tetrahydro-1,4-oxazepin-5-yl)-4-fluorophenyl)-4-chloro-1-methyl-1H-pyrazole-3-carboxamide] | 0.0292 | 0.28
20 | CC[C@]1(c2cc(NC(=O)c3nc[nH]c3C)ccc2F)N=C(N)COCC1(F)F [Example 100, (R)-N-(3-(3-Amino-5-ethyl-6,6-difluoro-2,5,6,7-tetrahydro-1,4-oxazepin-5-yl)-4-fluorophenyl)-5-methyl-1H-imidazole-4-carboxamide] | 0.516 | 2.8
